Data on 11 molecules can be found in ChEMBL document CHEMBL5465560, “Selectivity Literature for EUbOPEN Chemogenomic Library” (2024).

In experiment [1] the target is Casein kinase I isoform alpha (Homo sapiens, UniProt P48729). Kind of experiment: Selectivity interaction (KinomeScan (DiscoverX)) EUB0000595a CSNK1A1. The note with it: at 10 µM.
In another experiment the target is Focal adhesion kinase 1 (Homo sapiens, UniProt Q05397). The note with it: at 10 µM.
The target of experiment [2] is Protein-tyrosine kinase 2-beta (Homo sapiens) (UniProt Q14289). Kind of experiment: Selectivity interaction (ActivX KiNativ screen (kinase selectivity in THP-1 cell lysates)) EUB0000639a PTK2B. The class given is subcellular. The conditions noted are these: lysate.
Sequence of Protein-tyrosine kinase 2-beta (Homo sapiens) (Q14289 whole entry, looked up): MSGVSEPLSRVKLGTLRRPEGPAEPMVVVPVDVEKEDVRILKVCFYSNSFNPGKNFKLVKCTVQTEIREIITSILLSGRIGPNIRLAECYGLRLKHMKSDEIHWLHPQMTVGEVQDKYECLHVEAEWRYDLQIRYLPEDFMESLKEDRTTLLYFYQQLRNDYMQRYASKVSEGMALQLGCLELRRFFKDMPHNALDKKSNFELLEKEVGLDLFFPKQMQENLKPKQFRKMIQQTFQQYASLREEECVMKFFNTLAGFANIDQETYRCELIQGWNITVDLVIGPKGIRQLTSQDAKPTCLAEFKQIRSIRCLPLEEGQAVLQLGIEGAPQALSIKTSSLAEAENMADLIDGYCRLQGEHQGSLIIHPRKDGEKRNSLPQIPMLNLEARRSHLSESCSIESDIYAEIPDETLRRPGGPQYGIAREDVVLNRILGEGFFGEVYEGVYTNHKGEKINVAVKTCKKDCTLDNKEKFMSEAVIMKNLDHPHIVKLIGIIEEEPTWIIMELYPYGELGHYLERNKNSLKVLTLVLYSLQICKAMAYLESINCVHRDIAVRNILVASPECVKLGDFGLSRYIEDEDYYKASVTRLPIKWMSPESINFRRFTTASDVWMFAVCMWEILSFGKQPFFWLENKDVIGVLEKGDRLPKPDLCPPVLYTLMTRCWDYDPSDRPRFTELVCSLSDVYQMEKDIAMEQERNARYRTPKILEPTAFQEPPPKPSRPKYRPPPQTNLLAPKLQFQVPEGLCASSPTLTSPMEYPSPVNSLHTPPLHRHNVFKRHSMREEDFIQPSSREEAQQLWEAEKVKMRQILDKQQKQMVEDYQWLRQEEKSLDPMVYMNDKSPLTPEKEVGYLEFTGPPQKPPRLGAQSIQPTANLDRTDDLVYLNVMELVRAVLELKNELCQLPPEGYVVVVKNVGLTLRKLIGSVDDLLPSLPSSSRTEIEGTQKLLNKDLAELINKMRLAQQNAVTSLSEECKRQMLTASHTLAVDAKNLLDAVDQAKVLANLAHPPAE
The target in experiment [3] is T1, Serine/threonine-protein kinase Chk1 (Homo sapiens) (UniProt O14757).
T1 sequence (whole entry): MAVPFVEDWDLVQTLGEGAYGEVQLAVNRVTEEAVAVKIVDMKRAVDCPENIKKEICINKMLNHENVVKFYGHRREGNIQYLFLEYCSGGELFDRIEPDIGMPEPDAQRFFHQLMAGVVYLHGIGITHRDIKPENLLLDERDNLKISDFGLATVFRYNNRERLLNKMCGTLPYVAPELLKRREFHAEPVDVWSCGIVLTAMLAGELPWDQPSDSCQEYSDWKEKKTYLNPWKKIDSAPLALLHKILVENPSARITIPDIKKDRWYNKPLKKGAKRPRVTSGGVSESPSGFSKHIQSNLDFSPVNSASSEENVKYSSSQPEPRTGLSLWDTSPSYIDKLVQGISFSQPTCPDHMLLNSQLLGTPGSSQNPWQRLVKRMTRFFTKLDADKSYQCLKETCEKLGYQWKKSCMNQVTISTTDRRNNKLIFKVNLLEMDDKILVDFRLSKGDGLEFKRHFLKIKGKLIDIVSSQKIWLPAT
Kind of experiment: Selectivity interaction (ActivX KiNativ screen (kinase selectivity in THP-1 cell lysates)) EUB0000639a CHEK1. The note with it: lysate. Format: subcellular.

Experiment [4] has as its target T2, Protein kinase C zeta type (Homo sapiens) (UniProt Q05513).
T2 sequence (whole entry): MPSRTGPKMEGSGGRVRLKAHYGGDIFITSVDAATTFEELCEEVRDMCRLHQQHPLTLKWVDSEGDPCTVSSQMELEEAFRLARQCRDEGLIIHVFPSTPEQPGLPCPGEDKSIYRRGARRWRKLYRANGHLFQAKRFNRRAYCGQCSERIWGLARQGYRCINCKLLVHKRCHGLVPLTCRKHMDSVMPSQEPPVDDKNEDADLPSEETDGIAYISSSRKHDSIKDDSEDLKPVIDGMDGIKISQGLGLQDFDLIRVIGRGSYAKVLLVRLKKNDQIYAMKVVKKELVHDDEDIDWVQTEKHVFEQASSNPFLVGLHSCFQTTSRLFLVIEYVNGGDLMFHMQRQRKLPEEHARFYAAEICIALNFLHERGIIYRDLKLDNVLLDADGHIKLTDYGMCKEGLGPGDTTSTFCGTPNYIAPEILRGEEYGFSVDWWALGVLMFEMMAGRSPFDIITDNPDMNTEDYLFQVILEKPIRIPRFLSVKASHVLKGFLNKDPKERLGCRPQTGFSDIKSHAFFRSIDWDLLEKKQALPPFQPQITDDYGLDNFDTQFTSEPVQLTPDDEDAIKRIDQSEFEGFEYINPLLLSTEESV
The experiment in a line: Selectivity interaction (ProQinase) EUB0000171b PRKCZ. The conditions noted are these: at 5 µM.

Experiment [5] deals with Serine/threonine-protein kinase 38 (Homo sapiens) (UniProt Q15208). Kind of experiment: Selectivity interaction (Ambit KINOMEscan and KiNATiv profiling in Jurkat cells) EUB0000090b STK38. Format: cell-based. The conditions noted are these: at 1 µM.
Sequence of Serine/threonine-protein kinase 38 (Homo sapiens) (Q15208 2-465 limits assumed): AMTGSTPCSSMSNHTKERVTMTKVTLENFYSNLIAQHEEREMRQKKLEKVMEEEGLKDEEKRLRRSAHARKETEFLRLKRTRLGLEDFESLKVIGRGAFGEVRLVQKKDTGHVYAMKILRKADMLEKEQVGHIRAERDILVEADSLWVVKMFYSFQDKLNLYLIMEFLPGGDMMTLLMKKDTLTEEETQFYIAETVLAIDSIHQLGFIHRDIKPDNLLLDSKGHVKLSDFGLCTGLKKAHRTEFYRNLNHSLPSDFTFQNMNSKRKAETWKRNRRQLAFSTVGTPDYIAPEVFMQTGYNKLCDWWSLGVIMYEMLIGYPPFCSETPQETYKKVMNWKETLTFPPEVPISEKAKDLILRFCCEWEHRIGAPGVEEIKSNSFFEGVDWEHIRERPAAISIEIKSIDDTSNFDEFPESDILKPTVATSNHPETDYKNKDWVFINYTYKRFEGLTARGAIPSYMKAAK
Experiment [6] concerns the target T3, Hormonally up-regulated neu tumor-associated kinase (Homo sapiens) (UniProt P57058).
T3 sequence (whole entry): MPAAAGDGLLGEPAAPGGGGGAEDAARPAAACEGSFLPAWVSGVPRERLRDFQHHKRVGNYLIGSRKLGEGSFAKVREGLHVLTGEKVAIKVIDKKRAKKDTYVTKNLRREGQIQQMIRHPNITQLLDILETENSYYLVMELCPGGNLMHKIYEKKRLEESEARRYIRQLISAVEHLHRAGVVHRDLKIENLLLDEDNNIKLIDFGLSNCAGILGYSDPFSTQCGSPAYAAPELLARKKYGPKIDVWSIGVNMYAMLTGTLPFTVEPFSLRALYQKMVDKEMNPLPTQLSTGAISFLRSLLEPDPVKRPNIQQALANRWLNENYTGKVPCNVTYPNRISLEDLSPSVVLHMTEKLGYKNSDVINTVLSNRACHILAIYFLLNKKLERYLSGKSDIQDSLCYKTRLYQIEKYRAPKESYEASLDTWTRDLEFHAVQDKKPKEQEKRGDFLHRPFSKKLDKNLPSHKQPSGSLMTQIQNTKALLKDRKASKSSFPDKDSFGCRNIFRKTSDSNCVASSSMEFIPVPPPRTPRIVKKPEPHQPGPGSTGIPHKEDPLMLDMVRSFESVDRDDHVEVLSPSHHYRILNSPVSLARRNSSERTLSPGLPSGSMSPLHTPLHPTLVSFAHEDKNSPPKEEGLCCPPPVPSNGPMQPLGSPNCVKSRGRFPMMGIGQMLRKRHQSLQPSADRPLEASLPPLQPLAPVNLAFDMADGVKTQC
Kind of experiment: Selectivity interaction (KinomeScan (DiscoverX)) EUB0001049a HUNK. The note with it: at 1 µM.

In experiment [7] the target is Ribosomal protein S6 kinase alpha-6 (Homo sapiens, UniProt Q9UK32). Kind of experiment: Selectivity interaction (KinomeScan (DiscoverX)) EUB0000655a RPS6KA6. The note with it: at 10 µM.
Sequence of Ribosomal protein S6 kinase alpha-6 (Q9UK32 whole entry): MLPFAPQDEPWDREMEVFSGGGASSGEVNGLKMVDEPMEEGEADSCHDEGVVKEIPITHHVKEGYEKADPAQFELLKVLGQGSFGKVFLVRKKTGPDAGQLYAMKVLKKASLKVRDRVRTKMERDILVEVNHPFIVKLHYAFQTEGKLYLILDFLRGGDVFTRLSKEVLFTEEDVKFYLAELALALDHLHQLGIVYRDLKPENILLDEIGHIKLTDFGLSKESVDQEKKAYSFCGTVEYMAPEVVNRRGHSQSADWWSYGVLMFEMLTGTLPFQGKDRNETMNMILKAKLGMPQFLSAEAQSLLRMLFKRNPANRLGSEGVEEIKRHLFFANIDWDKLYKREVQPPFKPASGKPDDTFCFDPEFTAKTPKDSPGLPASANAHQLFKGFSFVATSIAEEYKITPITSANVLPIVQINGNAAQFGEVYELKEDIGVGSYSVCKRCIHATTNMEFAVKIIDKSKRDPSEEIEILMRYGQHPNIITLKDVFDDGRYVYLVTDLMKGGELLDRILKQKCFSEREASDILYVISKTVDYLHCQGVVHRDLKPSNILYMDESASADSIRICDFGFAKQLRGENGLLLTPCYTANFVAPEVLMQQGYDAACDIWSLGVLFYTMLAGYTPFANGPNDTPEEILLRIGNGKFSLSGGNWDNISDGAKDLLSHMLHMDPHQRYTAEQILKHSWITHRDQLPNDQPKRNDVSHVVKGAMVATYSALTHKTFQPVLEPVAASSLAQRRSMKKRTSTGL
Experiment [8] has as its system Tyrosine-protein kinase ABL1 (Homo sapiens), P00519 [T315I]. Kind of experiment: Selectivity interaction (KinomeScan (DiscoverX)) EUB0000092b ABL1. The note with it: at 10 µM.
Experiment [9] has as its system Leucine-rich repeat serine/threonine-protein kinase 2 (Homo sapiens), Q5S007 [G2019S]. Kind of experiment: (§1) Selectivity interaction (KinomeScan (DiscoverX)) EUB0000092b LRRK2. The note with it: at 10 µM.
For experiment [10], the target named is Leucine-rich repeat serine/threonine-protein kinase 2 (Homo sapiens, UniProt Q5S007). Described as §1. The note with it: at 10 µM.
Sequence of Leucine-rich repeat serine/threonine-protein kinase 2 (Q5S007 whole entry): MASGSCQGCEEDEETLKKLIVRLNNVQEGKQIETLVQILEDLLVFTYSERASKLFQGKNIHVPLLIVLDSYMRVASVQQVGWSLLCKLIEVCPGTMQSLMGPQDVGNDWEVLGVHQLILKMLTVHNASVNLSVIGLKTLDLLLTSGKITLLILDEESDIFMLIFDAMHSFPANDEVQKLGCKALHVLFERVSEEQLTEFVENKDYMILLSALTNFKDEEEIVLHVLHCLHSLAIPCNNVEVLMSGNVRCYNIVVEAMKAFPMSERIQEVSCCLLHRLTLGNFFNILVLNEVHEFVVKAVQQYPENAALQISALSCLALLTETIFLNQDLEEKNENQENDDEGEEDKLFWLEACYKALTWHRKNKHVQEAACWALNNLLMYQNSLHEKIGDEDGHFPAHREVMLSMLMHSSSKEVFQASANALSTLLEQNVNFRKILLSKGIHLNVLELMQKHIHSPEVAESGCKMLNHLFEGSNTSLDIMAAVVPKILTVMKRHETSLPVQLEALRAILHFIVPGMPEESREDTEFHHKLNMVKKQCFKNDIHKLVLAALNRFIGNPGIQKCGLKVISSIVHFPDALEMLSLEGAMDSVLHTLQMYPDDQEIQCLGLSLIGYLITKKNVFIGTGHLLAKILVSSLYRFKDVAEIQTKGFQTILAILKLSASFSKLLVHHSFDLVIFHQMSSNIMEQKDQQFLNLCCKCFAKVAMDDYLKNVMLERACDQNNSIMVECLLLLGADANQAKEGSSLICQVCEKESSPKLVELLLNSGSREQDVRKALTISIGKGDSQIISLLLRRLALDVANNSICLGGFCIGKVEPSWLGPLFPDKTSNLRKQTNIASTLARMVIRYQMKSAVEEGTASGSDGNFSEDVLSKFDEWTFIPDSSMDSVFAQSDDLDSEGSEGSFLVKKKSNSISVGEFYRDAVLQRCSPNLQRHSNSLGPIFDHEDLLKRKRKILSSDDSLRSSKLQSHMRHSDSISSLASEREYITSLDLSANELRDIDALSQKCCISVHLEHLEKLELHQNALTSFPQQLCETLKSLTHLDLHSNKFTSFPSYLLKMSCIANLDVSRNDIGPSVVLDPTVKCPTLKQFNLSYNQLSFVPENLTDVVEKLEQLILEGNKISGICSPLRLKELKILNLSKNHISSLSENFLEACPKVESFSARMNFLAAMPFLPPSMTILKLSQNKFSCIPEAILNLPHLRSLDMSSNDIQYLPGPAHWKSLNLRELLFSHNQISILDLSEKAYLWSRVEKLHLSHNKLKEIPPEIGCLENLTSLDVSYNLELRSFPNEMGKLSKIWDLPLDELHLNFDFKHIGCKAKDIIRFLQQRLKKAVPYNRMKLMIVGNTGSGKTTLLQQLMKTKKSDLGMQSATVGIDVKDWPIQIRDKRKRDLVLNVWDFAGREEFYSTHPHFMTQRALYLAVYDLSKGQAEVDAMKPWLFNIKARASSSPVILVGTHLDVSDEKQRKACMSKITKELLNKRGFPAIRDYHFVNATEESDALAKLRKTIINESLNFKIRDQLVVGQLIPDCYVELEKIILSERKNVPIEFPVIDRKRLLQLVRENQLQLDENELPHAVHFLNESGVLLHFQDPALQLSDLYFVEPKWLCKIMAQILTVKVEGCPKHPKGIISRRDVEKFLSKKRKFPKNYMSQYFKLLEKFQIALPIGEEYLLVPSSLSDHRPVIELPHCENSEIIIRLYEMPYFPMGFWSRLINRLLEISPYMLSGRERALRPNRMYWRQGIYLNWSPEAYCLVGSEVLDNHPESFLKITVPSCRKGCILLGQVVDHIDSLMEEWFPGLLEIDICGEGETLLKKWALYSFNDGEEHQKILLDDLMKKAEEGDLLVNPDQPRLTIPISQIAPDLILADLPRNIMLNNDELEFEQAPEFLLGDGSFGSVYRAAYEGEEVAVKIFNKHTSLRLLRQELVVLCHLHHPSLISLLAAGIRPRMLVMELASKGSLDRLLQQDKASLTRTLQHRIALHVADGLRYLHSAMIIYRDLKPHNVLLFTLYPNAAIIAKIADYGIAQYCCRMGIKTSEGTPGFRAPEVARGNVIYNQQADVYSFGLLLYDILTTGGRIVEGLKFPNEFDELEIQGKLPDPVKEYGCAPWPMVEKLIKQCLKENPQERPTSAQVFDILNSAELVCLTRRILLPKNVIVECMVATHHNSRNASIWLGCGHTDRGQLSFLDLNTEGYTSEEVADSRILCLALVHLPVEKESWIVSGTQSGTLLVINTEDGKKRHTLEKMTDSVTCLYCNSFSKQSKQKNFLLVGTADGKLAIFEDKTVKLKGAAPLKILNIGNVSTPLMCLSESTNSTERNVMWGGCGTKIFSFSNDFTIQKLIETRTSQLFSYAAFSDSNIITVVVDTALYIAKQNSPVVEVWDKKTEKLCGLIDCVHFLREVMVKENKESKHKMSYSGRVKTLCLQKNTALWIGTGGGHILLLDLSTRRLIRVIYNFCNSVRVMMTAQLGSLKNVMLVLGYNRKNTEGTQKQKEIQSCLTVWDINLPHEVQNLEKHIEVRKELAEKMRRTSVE
In experiment [11] the target is Histone-lysine N-methyltransferase SETDB1 (Homo sapiens) (UniProt Q15047). The experiment in a line: Selectivity interaction (Methyltransferase screen (radiometric assays, panel of 8 PRMTs, 21 protein lysine methyltransferases, 3 DNA methyltransferases, and one RNA methyltransferase)) EUB0000272b SETDB1.
Experiment [12] deals with Beta-2 adrenergic receptor (Homo sapiens, UniProt P07550). Kind of experiment: Selectivity interaction (Panel of non-epigenetic targets (kinases, GPCRs, ion channels, and transporters, Eurofins) ) EUB0000271b ADRB2. The note with it: at 1 µM.
The target of experiment [13] is Mitogen-activated protein kinase kinase kinase 11 (Homo sapiens) (UniProt Q16584). The experiment in a line: Selectivity interaction (KinomeScan (DiscoverX)) EUB0001079a MAP3K11. The conditions noted are these: at 1 µM.

Sequence of Casein kinase I isoform alpha (P48729 2-337 limits assumed): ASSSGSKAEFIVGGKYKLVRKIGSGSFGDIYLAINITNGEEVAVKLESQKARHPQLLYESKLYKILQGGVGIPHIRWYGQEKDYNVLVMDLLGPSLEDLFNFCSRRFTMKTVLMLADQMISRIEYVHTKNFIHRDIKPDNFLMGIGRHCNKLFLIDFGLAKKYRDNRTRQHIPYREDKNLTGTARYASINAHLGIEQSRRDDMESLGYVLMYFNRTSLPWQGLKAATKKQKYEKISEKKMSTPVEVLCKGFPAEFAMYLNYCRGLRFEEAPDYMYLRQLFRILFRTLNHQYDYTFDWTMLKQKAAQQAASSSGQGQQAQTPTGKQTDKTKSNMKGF
Sequence of Leucine-rich repeat serine/threonine-protein kinase 2 (Homo sapiens), Q5S007 [G2019S] (Q5S007 whole entry G2019S): as the sequence (Q5S007 whole entry) above, with G2019S counted along it

As for `COCC(=O)NC/C=C/c1ccc2ncnc(Nc3ccc(Oc4ccc(C)nc4)c(C)c3)c2c1` [CP-724714], the % of control in [1] was 100%.

Regarding `CCN(CC)CCCCNc1ncc2cc(-c3cc(OC)cc(OC)c3)c(NC(=O)NC(C)(C)C)nc2n1`, at Focal adhesion kinase 1, the % of control worked out at 100%.

In the case of `CC[C@@H]1[C@H](F)C(=O)N[C@@H]1COc1nccc2cc(C(N)=O)c(OC)cc12` [ZIMLOVISERTIB], the % of inhibition in experiment [2] (at 0.01 µM) is -13.4%; in experiment [2] (at 0.04 µM) it was 9.7%; in experiment [2] (at 0.2 µM) it was -2.6%; in [2] (at 1 µM) it was -0.1%; in [2] (at 5 µM) it was -10.1%; in experiment [3] (at 0.01 µM), -7.6%. The % of inhibition in [3] (at 0.04 µM) was 11.8%; in experiment [3] (at 0.2 µM) it was -8.5%; in experiment [3] (at 1 µM), 0.6%; in [3] (at 5 µM), -18.5%.

`C=CC(=O)Nc1cccc(C(=O)Nc2ccc(Nc3cc(-c4[nH]c(SC)nc4C)ccn3)cc2)c1` gave a % of control in experiment [4] of 68%.

For the molecule `CN(C)C/C=C/C(=O)Nc1ccc(C(=O)N2CCCC(Nc3ncc(Cl)c(-c4c[nH]c5ccccc45)n3)C2)cc1` (stereo not drawn), the % of control in experiment [5] came to 100%.

The molecule `COc1cc(Nc2nc(C)cc(-c3cnn4nc(OC)ccc34)n2)cc(C(F)(F)F)c1` had a % of control in experiment [6] of 99%.

Consider `CN(C)CCOc1ccc(-c2nc(-c3ccncc3)c(-c3ccc4c(c3)CC/C4=N\O)[nH]2)cc1`, for which the % of control in experiment [7] was determined as 82%.

As to `CCC(=O)N1CCN(c2ccc(-n3c(=O)ccc4cnc5ccc(-c6cnc7ccccc7c6)cc5c43)cc2C(F)(F)F)CC1`, the % of control in [8] was 100%; in [9], 99%; in [10] it was 81%.

As for `Cc1cc(C)cc([C@H]2c3cc(C)ccc3NC(=O)CN2C(=O)c2ccc(Br)s2)c1`, the % of activity is 103% in [11] (at 1 µM) and 104% in experiment [11] (at 10 µM).

Consider `Cc1cc(C)cc([C@@H]2c3cc(C)ccc3NC(=O)CN2C(=O)c2ccc(Br)s2)c1`, for which the % of inhibition in experiment [12] was -7%.

Regarding `Nc1cnc(N2CCc3cc(S(=O)(=O)Nc4c(F)cc(Cl)cc4F)cc(N4CCCC4=O)c32)nc1` [TP-020n], in experiment [13], the % of control turned out to be 100%.
